Experimental data reported in patent publication US20090233975A1, “Hair resiliency/body improver and hair cosmetic” (priority 2005, published 2009).

Test system: KAP5.1 gene
Test: KAP5.1 reporter assay (dual luciferase, pGL3-KAP5.1 in IORS cells)
Type: cell-based, human
Conditions: overnight culture, negative control K-SFM(−) = 100
Procedure: A DNA fragment of about 15 kb containing KAP5.1 gene and KAP5.2 gene was amplified by PCR using an NM-F1 primer (SEQ ID NO. 6), in which the recognition sites of restriction endonuclease NotI and MluI were added to the 5′-terminal thereof, and an R2 primer (SEQ ID NO. 7), and using commercially available human genomic DNA (obtained from Promega) as the template (FIG. 1-A).
The amplified DNA fragment was double-digested with restriction endonucleases MluI and NheI, and a DNA fragment of about 4.9 kb was recovered following separation by agarose gel electrophoresis. This DNA fragment was cloned between the MluI and NheI sites of reporter vector pGL-3basic (obtained from Promega) having a gene that encodes firefly luciferase (FIG. 1-B). Reporter plasmid pGL-3-KAP5.1 containing the 5′ upstream region (SEQ ID NO. 8) of KAP5.1 was then constructed by subcloning [Step 1: subcloning of SacI/NcoI fragment (154 bp, FIG. 2) to pGL-3basic; Step 2: insertion of ScaI fragment (about 4.0 kbp, FIG. 2) into resulting plasmid] (FIG. 2).
8×10^5 immortalized outer root sheath (IORS) cells (obtained in accordance with Japanese Unexamined Patent Publication (Kokai) No. 2000-89) were seeded into a 75 cm^2 flask and cultured for 6 days under conditions of 37° C. and 5% CO2. Keratinocyte-SFM medium (Gibco) was used as the medium.
Day 1: Plasmid DNA Transfection (transient). The cultured IORS cells were dually transformed with the previously constructed reporter plasmid pGL3-KAP5.1 (firefly luciferase) and commercially available internal standard plasmid pRL-TK (renilla luciferase) in accordance with the manual provided with Effectene Transfection Reagent (Qiagen).
Day 2: The transformed cells were re-seeded into in a 24-well multiwell plate at 10 to 16×10^4 cells per well and cultured overnight under conditions of 37° C. and 5% CO2.
Day 3: The medium in each well was replaced with a basal medium in which each drug was dissolved followed by culturing overnight under conditions of 37° C. and 5% CO2.
Day 4: Assay. Luciferase activity was assayed for each well using the Dual-Luciferase Reporter Assay System (Promega) in accordance with the manual provided by the manufacturer. The AutoLumat LB953 (Berthold) was used for the luminometer.
An assay was carried out under the same conditions with the exception of not containing drug as a negative control [K-SFM(−)]. The effect of increasing gene expression are represented in the form of the rate of increase (ratio based on a value of 100 for the negative control).

Compound: CC(=O)Nc1cc(C)on1 [3-acetamido-5-methylisoxazole]
- Rate of Increase (KAP5.1 gene expression, ratio based on a value of 100 for the negative control) (10 ppm drug): 100
- Rate of Increase (KAP5.1 gene expression, ratio based on a value of 100 for the negative control) (100 ppm drug): 110
- Rate of Increase (KAP5.1 gene expression, ratio based on a value of 100 for the negative control) (300 ppm drug): 125

Compound: CC(=O)Nc1nc(C)cs1 [2-acetamido-4-methylthiazole]
- Rate of Increase (KAP5.1 gene expression, ratio based on a value of 100 for the negative control) (10 ppm drug): 110
- Rate of Increase (KAP5.1 gene expression, ratio based on a value of 100 for the negative control) (100 ppm drug): 150

Compound: Nc1nccs1 [2-aminothiazole]
- Rate of Increase (KAP5.1 gene expression, ratio based on a value of 100 for the negative control) (10 ppm drug): 110
- Rate of Increase (KAP5.1 gene expression, ratio based on a value of 100 for the negative control) (100 ppm drug): 140

Compound: CC(=O)Nc1nccs1 [2-acetamidothiazole]
- Rate of Increase (KAP5.1 gene expression, ratio based on a value of 100 for the negative control) (10 ppm drug): 130
- Rate of Increase (KAP5.1 gene expression, ratio based on a value of 100 for the negative control) (100 ppm drug): 180

Compound: Cc1cc(N)no1 [3-amino-5-methylisoxazole]
- Rate of Increase (KAP5.1 gene expression, ratio based on a value of 100 for the negative control) (10 ppm drug): 120
- Rate of Increase (KAP5.1 gene expression, ratio based on a value of 100 for the negative control) (100 ppm drug): 140
- Rate of Increase (KAP5.1 gene expression, ratio based on a value of 100 for the negative control) (300 ppm drug): 160
